What follows are compounds tested against T1, human A2a receptor (Homo sapiens, UniProt P29274) (assay: A2a competition binding assay, Scintillation Proximity technology). Details: membranes from HEK293 cells expressing human A2a receptor; Ki by Cheng-Prusoff equation.
T1 construct: purchased Perkin-Elmer RBHA2AM400UA; host or cells: HEK293 cells (membranes)
Description: Binding affinities of compounds of the invention for the human A2a receptor were determined in a competition binding assay using Scintillation Proximity technology. Thus, […] from HEK293 cells expressing the human A2a receptor were incubated with a compound of the invention at concentrations ranging from 3000 nM to 0.15 nM in a reaction mixture containing also 0.5 nM of a tritiated form of 5-amino-7-[2-phenethyl]-2-(furan-2-yl)-7H-pyrazolo[4,3-e][1,2,4]triazolo[1,5-c]pyrimidine (the tritiated compound) and 100 μg of wheat germ agglutin-coated yttrium silicate SPA beads for one hour at room temperature with agitation. The beads were then allowed to settle to the bottom of the wells for 1 hr, after which the membrane-associated radioactivity was determined by scintillation counting in a TopCount microplate reader. Ki values were determined using the Cheng-Prusoff equation.
HEK293 cells expressing the human, rat, dog or monkey adenosine 2a receptor (Purchased from Perkin-Elmer # RBHA2AM400UA).
The Tritiated compound was prepared in-house by MRL Radiochemistry according to published methods.
Wheat germ agglutinin-coated yttrium silicate SPA beads (GE Healthcare #RPNQ0023). Dilute to 25 mg/ml in assay buffer.
Assay Buffer was prepared in house: Dulbecco's calcium and magnesium free phosphate buffered saline+10 mM MgCl2
Adenosine deaminase from calf intestine, 10 mg/2 ml (Roche #10 102 105 001).
A2a antagonist standard (9-chloro-1-(2-furanyl)-[1,2,4]triazolo1,5-c]quinazolin-5-amine from Tocris Bioscience)
Make eight 1:3 serial dilutions in 100% DMSO from a 3 mM compound stock
Transfer 50 nl of compound into a 384-well OptiPlate (Perkin Elmer).
Typically, final concentrations of compound used in the assay ranged from 3000 nM to 0.152 nM.
Dilute a solution of the Tritiated compound to 1.25 nM in assay buffer. This is a 2.5× solution. The final concentration in the assay is 0.5 nM. Calculate the concentration by counting two 5 μl aliquots.
Use 0.25 ug of membrane/well. Dilute membranes to 9.7 μg/ml in assay buffer. Treat with 20 ug/ml adenosine deaminase (ADA) for 15 minutes at room temperature to degrade endogenous adenosine.
Use 100 μg/well wheat germ agglutinin-coated yttrium silicate SPA beads.
Mix ADA-treated membranes and SPA beads together for 30 min prior to assay.
To the Perkin-Elmer Optiplate-384 containing the compound titration add 20 μl of 2.5× solution of the Tritiated compound and 30 μl of the membrane-bead mixture. Incubate for one hour at room temperature with agitation.
Include total binding (assay buffer+1% DMSO) and non-specific binding (CGS15943, 1 μM) wells.
Allow the beads to settle for one hour.
A curve fitting program (i.e., Prism, Activity Base, Chemcart) is used to determine the EC50. The Ki value is calculated using the Cheng-Prusoff equation. Ki=EC50/(1+(radioligand concentration/Kd))

T1 sequence (P29274 whole entry): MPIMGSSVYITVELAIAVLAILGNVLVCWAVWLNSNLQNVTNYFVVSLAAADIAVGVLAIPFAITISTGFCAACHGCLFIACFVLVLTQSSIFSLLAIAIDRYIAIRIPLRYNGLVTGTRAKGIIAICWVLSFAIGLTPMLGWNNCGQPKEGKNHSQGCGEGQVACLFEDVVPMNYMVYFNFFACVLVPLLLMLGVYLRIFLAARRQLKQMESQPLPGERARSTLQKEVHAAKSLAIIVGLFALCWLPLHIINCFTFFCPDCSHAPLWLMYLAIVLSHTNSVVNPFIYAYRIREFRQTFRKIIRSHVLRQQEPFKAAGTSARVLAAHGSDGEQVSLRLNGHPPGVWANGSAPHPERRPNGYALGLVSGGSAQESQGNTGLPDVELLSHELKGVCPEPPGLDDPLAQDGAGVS

Structure (SMILES)	Ki [nM]
Cc1nc(C(=O)NCc2cccc3c2ncn3CC(F)F)c(N)nc1-c1ncco1 [Ex-36, 3-amino-N-{[1-(2,2-difluoroethyl)-1H-benzimidazol-4-yl]methyl}-6-methyl-5-(1,3-oxazol-2-yl)pyrazine-2-carboxamide]	0.464
Cc1nc(C(=O)NCc2nc(C)c(C)n2C)c(N)nc1-c1ncco1 [Ex-37, 3-amino-6-methyl-5-(1,3-oxazol-2-yl)-N-[(1,4,5-trimethyl-1H-imidazol-2-yl)methyl]pyrazine-2-carboxamide]	7.77
Cc1nc(C(=O)NCc2ncn(C(C)C)c2C)c(N)nc1-c1ncco1 [Ex-38, 3-amino-6-methyl-N-{[5-methyl-1-(1-methylethyl)-1H-imidazol-4-yl]methyl}-5-(1,3-oxazol-2-yl)pyrazine-2-carboxamide]	2.27
Cc1ccc(C)c(CNC(=O)c2nc(C)c(-c3ncco3)nc2N)n1 [Ex-41, 3-amino-N-[(3,6-dimethylpyridin-2-yl)methyl]-6-methyl-5-(1,3-oxazol-2-yl)pyrazine-2-carboxamide]	0.593
Cc1nc(C(=O)NCc2cc(C(F)(F)F)ccn2)c(N)nc1-c1ncco1 [Ex-42, 3-amino-6-methyl-5-(1,3-oxazol-2-yl)-N-{[4-(trifluoromethyl)pyridin-2-yl]methyl}pyrazine-2-carboxamide]	0.672
COc1cccnc1CNC(=O)c1nc(C)c(-c2ncco2)nc1N [Ex-43, 3-amino-N-[(3-methoxypyridin-2-yl)methyl]-6-methyl-5-(1,3-oxazol-2-yl)pyrazine-2-carboxamide]	0.116
Cc1nc(C(=O)NCc2cc(Cl)ccn2)c(N)nc1-c1ncco1 [Ex-45, 3-amino-N-[(4-chloropyridin-2-yl)methyl]-6-methyl-5-(1,3-oxazol-2-yl)pyrazine-2-carboxamide]	0.735
Cc1nc(C(=O)NCc2ncc(F)cc2Cl)c(N)nc1-c1ncco1 [Ex-47, 3-amino-N-[(3-chloro-5-fluoropyridin-2-yl)methyl]-6-methyl-5-(1,3-oxazol-2-yl)pyrazine-2-carboxamide]	1.8
Cc1ccnnc1CNC(=O)c1nc(C)c(-c2ncco2)nc1N [Ex-48, 3-amino-6-methyl-N-[(4-methylpyridazin-3-yl)methyl]-5-(1,3-oxazol-2-yl)pyrazine-2-carboxamide]	1.01
Cc1nc(C(=O)NCc2ccc(Cl)cn2)c(N)nc1-c1ncco1 [Ex-49, 3-amino-N-[(5-chloropyridin-2-yl)methyl]-6-methyl-5-(1,3-oxazol-2-yl)pyrazine-2-carboxamide]	1.26
Cc1nc(C(=O)NCc2cccn(C)c2=O)c(N)nc1-c1ncco1 [Ex-50, 3-amino-6-methyl-N-[(1-methyl-2-oxo-1,2-dihydropyridin-3-yl)methyl]-5-(1,3-oxazol-2-yl)pyrazine-2-carboxamide]	1.25
Cc1nc(C(=O)NCc2ccccn2)c(N)nc1-c1ncco1 [Ex-51, 3-amino-6-methyl-5-(1,3-oxazol-2-yl)-N-(pyridin-2-ylmethyl)pyrazine-2-carboxamide]	0.717
Cc1nc(C(=O)NCc2ccc(F)nc2)c(N)nc1-c1ncco1 [Ex-53, 3-amino-N-[(6-fluoropyridin-3-yl)methyl]-6-methyl-5-(1,3-oxazol-2-yl)pyrazine-2-carboxamide]	26.1
COc1ccc(CNC(=O)c2nc(C)c(-c3ncco3)nc2N)nc1C(F)(F)F [Ex-55, 3-amino-N-{[5-methoxy-6-(trifluoromethyl)pyridin-2-yl]methyl}-6-methyl-5-(1,3-oxazol-2-yl)pyrazine-2-carboxamide]	3.89
Cc1cnnc(CNC(=O)c2nc(C)c(-c3ncco3)nc2N)c1 [Ex-56, 3-amino-6-methyl-N-[(5-methylpyridazin-3-yl)methyl]-5-(1,3-oxazol-2-yl)pyrazine-2-carboxamide]	21.5
Cc1nc(C(=O)NCc2ccc(F)cn2)c(N)nc1-c1ncco1 [Ex-57, 3-amino-N-[(5-fluoropyridin-2-yl)methyl]-6-methyl-5-(1,3-oxazol-2-yl)pyrazine-2-carboxamide]	1.03
Cc1nc(C(=O)NCc2nccc(OCC(F)(F)F)c2C)c(N)nc1-c1ncco1 [Ex-58, 3-amino-6-methyl-N-{[3-methyl-4-(2,2,2-trifluoroethoxy)pyridin-2-yl]methyl}-5-(1,3-oxazol-2-yl)pyrazine-2-carboxamide]	4.56
Cc1nc(C(=O)NCc2ccc(C(F)(F)F)cn2)c(N)nc1-c1ncco1 [Ex-59, 3-amino-6-methyl-5-(1,3-oxazol-2-yl)-N-{[5-(trifluoromethyl)pyridin-2-yl]methyl}pyrazine-2-carboxamide]	14.8
Cc1nc(C(=O)NCC(C)(C)c2ccncc2)c(N)nc1-c1ncco1 [Ex-60, 3-amino-6-methyl-N-(2-methyl-2-pyridin-4-ylpropyl)-5-(1,3-oxazol-2-yl)pyrazine-2-carboxamide]	9.2
Cc1nc(C(=O)NCc2cccnc2O)c(N)nc1-c1ncco1 [Ex-64, 3-amino-N-[(2-hydroxypyridin-3-yl)methyl]-6-methyl-5-(1,3-oxazol-2-yl)pyrazine-2-carboxamide]	1.5
Cc1nc(C(=O)NC2CCN(c3ncccn3)CC2)c(N)nc1-c1ncco1 [Ex-66, 3-amino-6-methyl-5-(1,3-oxaol-2-yl)-N-(1-pyrimidin-2-ylpiperidin-4-yl)pyrazine-2-carboxamide]	24.4
Cc1cnccc1CNC(=O)c1nc(C)c(-c2ncco2)nc1N [Ex-67, 3-amino-6-methyl-N-[(3-methylpyridin-4-yl)methyl]-5-(1,3-oxazol-2-yl)pyrazine-2-carboxamide]	64.1

Further compounds by falling Ki, results first:

Ki [nM]	Structure (SMILES)
33.9	Cc1nc(C(=O)NCc2cnco2)c(N)nc1-c1ncco1 [Ex-39, 3-amino-6-methyl-5-(1,3-oxazol-2-yl)-N-(1,3-oxazol-5-ylmethyl)pyrazine-2-carboxamide]
14.6	Cc1nc(C(=O)NCc2ccns2)c(N)nc1-c1ncco1 [Ex-40, 3-amino-N-(isothiazol-5-ylmethyl)-6-methyl-5-(1,3-oxazol-2-yl)pyrazine-2-carboxamide]
5.59	Cc1nc(C(=O)NCc2ccncc2Cl)c(N)nc1-c1ncco1 [Ex-46, 3-amino-N-[(3-chloropyridin-4-yl)methyl]-6-methyl-5-(1,3-oxazol-2-yl)pyrazine-2-carboxamide]
4.88	Cc1nc(C(=O)NCc2cccc[n+]2[O-])c(N)nc1-c1ncco1 [Ex-52, 3-amino-6-methyl-5-(1,3-oxazol-2-yl)-N-[(1-oxidopyridin-2-yl)methyl]pyrazine-2-carboxamide]
4.19	Cc1nc(C(=O)NCc2cccnc2Cl)c(N)nc1-c1ncco1 [Ex-65, 3-amino-N-[(2-chloropyridin-3-yl)methyl]-6-methyl-5-(1,3-oxazol-2-yl)pyrazine-2-carboxamide]
2.52	Cc1nc(C(=O)NCc2cc(C(F)F)cc(C(F)F)n2)c(N)nc1-c1ncco1 [Ex-63, 3-amino-N-{[4,6-bis(difluoromethyl)pyridin-2-yl]methyl}-6-methyl-5-(1,3-oxazol-2-yl)pyrazine-2-carboxamide]
2.46	Cc1nc(C(=O)NCc2cc(F)ccn2)c(N)nc1-c1ncco1 [Ex-61, 3-amino-N-[(4-fluoropyridin-2-yl)methyl]-6-methyl-5-(1,3-oxazol-2-yl)pyrazine-2-carboxamide]
1.77	Cc1nc(C(=O)NCc2cc(C(F)(F)F)cc(Cl)n2)c(N)nc1-c1ncco1 [Ex-54, 3-amino-N-{[6-chloro-4-(trifluoromethyl)pyridin-2-yl]methyl}-6-methyl-5-(1,3-oxazol-2-yl)pyrazine-2-carboxamide]
0.622	Cc1nc(C(=O)NCc2ncc(F)cc2F)c(N)nc1-c1ncco1 [Ex-62, 3-amino-N-[(3,5-difluoropyridin-2-yl)methyl]-6-methyl-5-(1,3-oxazol-2-yl)pyrazine-2-carboxamide]
0.533	Cc1nc(C(=O)NCc2nccn2CC(F)F)c(N)nc1-c1ncco1 [Ex-44, 3-amino-N-{[1-(2,2-difluoroethyl)-1H-imidazol-2-yl]methyl}-6-methyl-5-(1,3-oxazol-2-yl)pyrazine-2-carboxamide]
0.396	Cc1cc(C)nc(CNC(=O)c2nc(C)c(-c3ncco3)nc2N)c1 [Ex-35, 3-amino-N-[(4,6-dimethylpyridin-2-yl)methyl]-6-methyl-5-(1,3-oxazol-2-yl)pyrazine-2-carboxamide]
